Data on one compound can be found in ChEMBL document CHEMBL4330132, “5-Keto-3-cyano-2,4-diaminothiophenes as selective maternal embryonic leucine zipper kinase inhibitors” (Bioorg Med Chem Lett, 2019).

The target of experiment [1] is Aurora kinase B (Homo sapiens) (UniProt Q96GD4). Put plainly: Binding affinity to wild-type human partial length AURKB (D25 to A303 residues) expressed in mammalian expression system assessed as residual binding level at 1 uM by Kinomescan method relative to control.
For experiment [2], the target named is CDK4/Cyclin D3 (Homo sapiens) (UniProt P11802+P30281). Kind of experiment: Binding affinity to wild-type human full length CDK4/cyclinD3 (M1 to E303 residues) expressed in mammalian expression system assessed as residual binding level at 1 uM by Kinomescan method relative to control.
For experiment [3], the target named is Cyclin-dependent kinase 8 (Homo sapiens) (UniProt P49336). Put plainly: Binding affinity to wild-type human partial length CDK8 (M1 to T360 residues) expressed in bacterial expression system assessed as residual binding level at 1 uM by Kinomescan method relative to control.
Experiment [4] addresses Macrophage colony-stimulating factor 1 receptor (Homo sapiens) (UniProt P07333). Put plainly: Binding affinity to wild-type human partial length CSF1R (I564 to S939 residues) expressed in bacterial expression system assessed as residual binding level at 1 uM by Kinomescan method relative to control.
The target in experiment [5] is Casein kinase I isoform delta (Homo sapiens) (UniProt P48730). Kind of experiment: Binding affinity to wild-type human full length CSNK1D (M1 to K409 residues) expressed in bacterial expression system assessed as residual binding level at 1 uM by Kinomescan method relative to control.
The target of experiment [6] is Serine/threonine-protein kinase DCLK1 (Homo sapiens) (UniProt O15075). Put plainly: Binding affinity to wild-type human partial length DCAMKL1 (L270 to A662 residues) expressed in mammalian expression system assessed as residual binding level at 1 uM by Kinomescan method relative to control.
The target of experiment [7] is Ephrin type-A receptor 1 (Homo sapiens) (UniProt P21709). Kind of experiment: Binding affinity to wild-type human partial length EPHA1 (V588 to I913 residues) expressed in bacterial expression system assessed as residual binding level at 1 uM by Kinomescan method relative to control.
In experiment [8] the target is Ephrin type-B receptor 6 (Homo sapiens) (UniProt O15197). Kind of experiment: Binding affinity to wild-type human partial length EPHB6 (Q634 to P948 residues) expressed in mammalian expression system assessed as residual binding level at 1 uM by Kinomescan method relative to control.
Experiment [9] concerns the target Receptor tyrosine-protein kinase erbB-3 (Homo sapiens) (UniProt P21860). Kind of experiment: Binding affinity to wild-type human partial length ERBB3 (G684 to A987 residues) expressed in mammalian expression system assessed as residual binding level at 1 uM by Kinomescan method relative to control.
Experiment [10] deals with Fibroblast growth factor receptor 3 (Homo sapiens) (UniProt P22607). Put plainly: Binding affinity to wild-type human partial length FGFR3 (R442 to S771 residues) expressed in bacterial expression system assessed as residual binding level at 1 uM by Kinomescan method relative to control.
Experiment [11] deals with Homeodomain-interacting protein kinase 1 (Homo sapiens) (UniProt Q86Z02). Put plainly: Binding affinity to wild-type human partial length HIPK1 (M146 to I555 residues) expressed in mammalian expression system assessed as residual binding level at 1 uM by Kinomescan method relative to control.
Experiment [12] concerns the target Mitogen-activated protein kinase 8 (Homo sapiens) (UniProt P45983). Kind of experiment: Binding affinity to wild-type human full length JNK1 (M1 to Q384 residues) expressed in mammalian expression system assessed as residual binding level at 1 uM by Kinomescan method relative to control.
Experiment [13] concerns Mast/stem cell growth factor receptor Kit (Homo sapiens), P10721 [UNDEFINED MUTATION]. Put plainly: Binding affinity to human partial length KIT V559D/[…] double mutant (Y545 to D952 residues) expressed in bacterial expression system assessed as residual binding level at 1 uM by Kinomescan method relative to control.
Mast/stem cell growth factor receptor Kit (Homo sapiens), P10721 [UNDEFINED MUTATION], sequence (P10721 whole entry, looked up, stated change not applied, the tested form may be a part): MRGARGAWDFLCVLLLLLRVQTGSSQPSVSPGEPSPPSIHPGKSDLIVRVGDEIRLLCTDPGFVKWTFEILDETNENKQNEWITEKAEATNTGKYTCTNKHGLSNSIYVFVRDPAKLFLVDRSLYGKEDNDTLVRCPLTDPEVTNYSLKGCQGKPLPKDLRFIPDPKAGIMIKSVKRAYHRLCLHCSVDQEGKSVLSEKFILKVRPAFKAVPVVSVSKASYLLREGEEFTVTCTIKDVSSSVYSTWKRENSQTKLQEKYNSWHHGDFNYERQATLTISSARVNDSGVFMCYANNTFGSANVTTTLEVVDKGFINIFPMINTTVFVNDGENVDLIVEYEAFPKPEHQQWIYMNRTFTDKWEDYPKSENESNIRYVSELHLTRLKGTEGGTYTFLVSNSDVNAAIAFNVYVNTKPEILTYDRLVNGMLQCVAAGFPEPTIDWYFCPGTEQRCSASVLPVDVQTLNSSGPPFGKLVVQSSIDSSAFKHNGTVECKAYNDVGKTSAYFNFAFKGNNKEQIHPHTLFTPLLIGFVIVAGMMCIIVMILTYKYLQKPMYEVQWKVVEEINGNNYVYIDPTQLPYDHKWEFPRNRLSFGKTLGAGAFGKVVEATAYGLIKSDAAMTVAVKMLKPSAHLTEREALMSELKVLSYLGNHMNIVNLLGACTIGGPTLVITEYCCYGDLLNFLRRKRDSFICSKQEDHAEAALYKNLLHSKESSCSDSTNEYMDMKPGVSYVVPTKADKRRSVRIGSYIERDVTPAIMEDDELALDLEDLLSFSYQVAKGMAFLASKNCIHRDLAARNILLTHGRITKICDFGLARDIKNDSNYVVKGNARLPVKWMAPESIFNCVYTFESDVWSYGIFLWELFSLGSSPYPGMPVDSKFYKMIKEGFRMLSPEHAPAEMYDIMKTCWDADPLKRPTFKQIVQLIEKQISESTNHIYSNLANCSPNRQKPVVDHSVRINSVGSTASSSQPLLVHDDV
In experiment [14] the target is Serine/threonine-protein kinase MARK1 (Homo sapiens) (UniProt Q9P0L2). Put plainly: Binding affinity to wild-type human partial length MARK1 (Q30 to T341 residues) expressed in bacterial expression system assessed as residual binding level at 1 uM by Kinomescan method relative to control.
Experiment [15] addresses Maternal embryonic leucine zipper kinase (Homo sapiens, UniProt Q14680). Kind of experiment: Binding affinity to wild-type human full length MELK (M1 to V651 residues) expressed in bacterial expression system assessed as residual binding level at 1 uM by Kinomescan method relative to control.
The target in experiment [16] is MAP kinase-interacting serine/threonine-protein kinase 2 (Homo sapiens) (UniProt Q9HBH9). Put plainly: Binding affinity to wild-type human partial length MKNK2 (G63 to S388 residues) expressed in mammalian expression system assessed as residual binding level at 1 uM by Kinomescan method relative to control.
MAP kinase-interacting serine/threonine-protein kinase 2 (Homo sapiens), sequence (Q9HBH9 whole entry, looked up, the tested form may be a part): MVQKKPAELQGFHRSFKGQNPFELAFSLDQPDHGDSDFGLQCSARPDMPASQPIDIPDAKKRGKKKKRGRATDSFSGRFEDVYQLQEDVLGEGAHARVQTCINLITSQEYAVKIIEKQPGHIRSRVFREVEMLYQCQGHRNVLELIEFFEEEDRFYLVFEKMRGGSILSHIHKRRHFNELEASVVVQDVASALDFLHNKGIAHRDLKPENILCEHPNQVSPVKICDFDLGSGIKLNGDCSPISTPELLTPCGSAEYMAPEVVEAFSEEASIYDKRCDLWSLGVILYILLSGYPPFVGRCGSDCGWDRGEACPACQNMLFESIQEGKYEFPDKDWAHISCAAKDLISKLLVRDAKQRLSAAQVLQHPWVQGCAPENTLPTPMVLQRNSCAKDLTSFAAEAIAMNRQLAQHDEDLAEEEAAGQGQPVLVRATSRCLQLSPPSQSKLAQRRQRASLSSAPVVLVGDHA
Experiment [17] has as its target Myosin light chain kinase, smooth muscle (Homo sapiens) (UniProt Q15746). Kind of experiment: Binding affinity to wild-type human full length MYLK (M854 to E1845 residues) expressed in mammalian expression system assessed as residual binding level at 1 uM by Kinomescan method relative to control.
Experiment [18] addresses Serine/threonine-protein kinase Nek2 (Homo sapiens) (UniProt P51955). Kind of experiment: Binding affinity to wild-type human partial length NEK2 (M1 to K309 residues) expressed in bacterial expression system assessed as residual binding level at 1 uM by Kinomescan method relative to control.
The target of experiment [19] is Serine/threonine-protein kinase N2 (Homo sapiens) (UniProt Q16513). Kind of experiment: Binding affinity to wild-type human partial length PKN2 (E634 to C984 residues) expressed in bacterial expression system assessed as residual binding level at 1 uM by Kinomescan method relative to control.
Serine/threonine-protein kinase N2 (Homo sapiens), sequence (Q16513 whole entry, looked up, the tested form may be a part): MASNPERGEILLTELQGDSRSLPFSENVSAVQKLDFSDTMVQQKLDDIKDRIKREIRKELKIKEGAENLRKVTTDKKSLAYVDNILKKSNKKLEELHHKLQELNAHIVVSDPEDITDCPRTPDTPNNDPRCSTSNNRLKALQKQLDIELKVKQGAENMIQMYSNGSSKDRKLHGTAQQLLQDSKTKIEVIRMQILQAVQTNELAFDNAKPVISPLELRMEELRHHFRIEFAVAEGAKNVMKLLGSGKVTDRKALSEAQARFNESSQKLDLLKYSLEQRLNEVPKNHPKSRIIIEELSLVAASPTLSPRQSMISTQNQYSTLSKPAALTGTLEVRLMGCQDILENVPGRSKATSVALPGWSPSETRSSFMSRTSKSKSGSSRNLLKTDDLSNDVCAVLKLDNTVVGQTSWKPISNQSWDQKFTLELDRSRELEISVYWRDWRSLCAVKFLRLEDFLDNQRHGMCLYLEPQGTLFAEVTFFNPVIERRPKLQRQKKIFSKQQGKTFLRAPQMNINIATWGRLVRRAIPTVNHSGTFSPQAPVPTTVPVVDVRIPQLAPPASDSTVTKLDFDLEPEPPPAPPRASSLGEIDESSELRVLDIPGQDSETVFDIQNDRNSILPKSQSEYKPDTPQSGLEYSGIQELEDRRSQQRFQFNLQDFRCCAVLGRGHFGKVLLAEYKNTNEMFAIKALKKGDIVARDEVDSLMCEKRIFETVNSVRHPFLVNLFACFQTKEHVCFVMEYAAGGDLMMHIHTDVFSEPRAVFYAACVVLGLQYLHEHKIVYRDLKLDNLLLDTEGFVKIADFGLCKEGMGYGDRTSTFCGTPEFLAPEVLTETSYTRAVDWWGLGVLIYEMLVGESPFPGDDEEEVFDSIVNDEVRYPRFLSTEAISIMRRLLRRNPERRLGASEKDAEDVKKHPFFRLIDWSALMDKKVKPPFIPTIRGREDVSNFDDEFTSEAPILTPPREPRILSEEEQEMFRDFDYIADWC
Experiment [20] has as its target Serine/threonine-protein kinase PLK3 (Homo sapiens) (UniProt Q9H4B4). Put plainly: Binding affinity to wild-type human partial length PLK3 (A42 to L334 residues) expressed in mammalian expression system assessed as residual binding level at 1 uM by Kinomescan method relative to control.
For experiment [21], the target named is Receptor-interacting serine/threonine-protein kinase 4 (Homo sapiens) (UniProt P57078). Put plainly: Binding affinity to wild-type human partial length RIPK4 (M1 to V303 residues) expressed in mammalian expression system assessed as residual binding level at 1 uM by Kinomescan method relative to control.
The target of experiment [22] is Serine/threonine-protein kinase SBK1 (Homo sapiens) (UniProt Q52WX2). Kind of experiment: Binding affinity to wild-type human partial length SBK1 (P23 to P348 residues) expressed in mammalian expression system assessed as residual binding level at 1 uM by Kinomescan method relative to control.
In experiment [23] the target is Serine/threonine-protein kinase SIK1 (Homo sapiens) (UniProt P57059). Kind of experiment: Binding affinity to wild-type human partial length SIK (M1 to Y304 residues) expressed in bacterial expression system assessed as residual binding level at 1 uM by Kinomescan method relative to control.
In experiment [24] the target is Wee1-like protein kinase 2 (Homo sapiens) (UniProt P0C1S8). Kind of experiment: Binding affinity to wild-type human partial length WEE2 (M204 to K492 residues) expressed in bacterial expression system assessed as residual binding level at 1 uM by Kinomescan method relative to control.
Wee1-like protein kinase 2 (Homo sapiens), sequence (P0C1S8 whole entry, looked up, the tested form may be a part): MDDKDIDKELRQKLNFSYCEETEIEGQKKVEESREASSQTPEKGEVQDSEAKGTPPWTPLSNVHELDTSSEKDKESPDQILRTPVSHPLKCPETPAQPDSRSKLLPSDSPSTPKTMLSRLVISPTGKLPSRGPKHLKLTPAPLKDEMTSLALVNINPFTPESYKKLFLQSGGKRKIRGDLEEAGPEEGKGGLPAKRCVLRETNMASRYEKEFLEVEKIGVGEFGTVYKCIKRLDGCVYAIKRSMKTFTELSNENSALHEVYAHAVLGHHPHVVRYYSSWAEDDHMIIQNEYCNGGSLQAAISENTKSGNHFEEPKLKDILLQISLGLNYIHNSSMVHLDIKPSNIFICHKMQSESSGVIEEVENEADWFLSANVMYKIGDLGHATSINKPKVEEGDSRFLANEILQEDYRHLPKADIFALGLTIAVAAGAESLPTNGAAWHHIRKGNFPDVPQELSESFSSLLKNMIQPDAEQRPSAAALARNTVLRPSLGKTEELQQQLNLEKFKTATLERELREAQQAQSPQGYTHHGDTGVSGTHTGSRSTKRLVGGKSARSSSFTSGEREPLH

Receptor tyrosine-protein kinase erbB-3 (Homo sapiens), sequence (P21860 whole entry, the tested form may be a part): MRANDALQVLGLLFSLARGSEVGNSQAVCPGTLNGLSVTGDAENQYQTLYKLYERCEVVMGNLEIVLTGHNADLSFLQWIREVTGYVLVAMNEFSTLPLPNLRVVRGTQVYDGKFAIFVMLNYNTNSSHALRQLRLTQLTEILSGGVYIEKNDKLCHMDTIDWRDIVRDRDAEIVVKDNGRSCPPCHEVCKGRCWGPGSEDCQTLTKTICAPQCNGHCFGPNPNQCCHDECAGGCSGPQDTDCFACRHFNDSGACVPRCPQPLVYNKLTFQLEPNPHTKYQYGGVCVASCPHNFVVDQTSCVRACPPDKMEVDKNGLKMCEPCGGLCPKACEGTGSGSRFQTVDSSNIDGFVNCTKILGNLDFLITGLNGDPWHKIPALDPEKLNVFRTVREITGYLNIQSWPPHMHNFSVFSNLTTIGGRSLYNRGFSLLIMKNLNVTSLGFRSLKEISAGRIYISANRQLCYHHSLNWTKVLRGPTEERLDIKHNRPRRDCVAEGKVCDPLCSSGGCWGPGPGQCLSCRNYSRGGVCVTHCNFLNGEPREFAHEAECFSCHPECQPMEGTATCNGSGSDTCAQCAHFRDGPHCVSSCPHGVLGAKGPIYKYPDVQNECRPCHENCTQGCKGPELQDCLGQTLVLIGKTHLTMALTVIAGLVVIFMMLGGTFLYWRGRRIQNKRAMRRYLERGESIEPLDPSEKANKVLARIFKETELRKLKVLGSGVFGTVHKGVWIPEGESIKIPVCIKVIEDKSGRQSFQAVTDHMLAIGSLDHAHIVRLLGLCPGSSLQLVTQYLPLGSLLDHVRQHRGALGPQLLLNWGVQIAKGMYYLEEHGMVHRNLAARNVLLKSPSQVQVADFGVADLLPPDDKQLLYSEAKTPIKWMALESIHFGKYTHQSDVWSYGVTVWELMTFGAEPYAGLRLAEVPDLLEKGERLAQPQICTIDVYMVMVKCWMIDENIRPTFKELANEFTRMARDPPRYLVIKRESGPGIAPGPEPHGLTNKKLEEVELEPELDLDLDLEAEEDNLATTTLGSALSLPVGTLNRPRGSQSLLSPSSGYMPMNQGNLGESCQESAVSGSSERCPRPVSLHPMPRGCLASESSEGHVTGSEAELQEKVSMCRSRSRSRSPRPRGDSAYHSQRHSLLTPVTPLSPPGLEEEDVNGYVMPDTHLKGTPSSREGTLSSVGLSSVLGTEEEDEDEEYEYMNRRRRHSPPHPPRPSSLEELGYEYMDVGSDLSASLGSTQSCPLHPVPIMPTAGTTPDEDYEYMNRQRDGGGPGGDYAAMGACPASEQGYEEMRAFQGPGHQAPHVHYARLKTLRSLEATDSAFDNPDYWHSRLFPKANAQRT
Serine/threonine-protein kinase Nek2 (Homo sapiens), sequence (P51955 whole entry, the tested form may be a part): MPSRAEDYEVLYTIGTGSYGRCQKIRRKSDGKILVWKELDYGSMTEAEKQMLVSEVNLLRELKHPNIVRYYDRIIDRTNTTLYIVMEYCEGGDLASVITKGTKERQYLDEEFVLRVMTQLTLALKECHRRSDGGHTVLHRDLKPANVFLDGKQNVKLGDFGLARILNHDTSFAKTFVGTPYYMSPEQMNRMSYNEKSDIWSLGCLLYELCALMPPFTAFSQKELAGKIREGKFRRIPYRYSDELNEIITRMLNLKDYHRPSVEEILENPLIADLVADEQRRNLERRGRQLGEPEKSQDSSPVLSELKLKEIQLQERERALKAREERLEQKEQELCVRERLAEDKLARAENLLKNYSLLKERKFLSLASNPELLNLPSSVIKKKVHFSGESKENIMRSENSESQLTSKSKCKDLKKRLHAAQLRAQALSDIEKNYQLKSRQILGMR

Consider `CC(C)Nc1sc(C(=O)c2ccc(Cl)s2)c(N)c1C#N`, for which the Activity was found to be 100% in [1]; 100% in [2]; 84% in experiment [3]; 97% in [4]; 59% in experiment [5]; 100% in experiment [6]. In addition, the Activity in experiment [7] is 95%; in [8], 100%; in experiment [9], 75%; in experiment [10], 100%; in [11] it was 100%; in [12], 100%. Moreover, the Activity was determined as 57% in [13]; 67% in [14]; 14% in [15]; 100% in experiment [16]; 71% in experiment [17]; 85% in [18]. The Activity in experiment [19] worked out at 73%; in experiment [20], 85%; in experiment [21], 100%; in [22] it was 100%; in experiment [23], 100%; in [24], 94%.
